How the values were obtained:
[1] = tested on: 4T1 mammary carcinoma cells; experiment: 4T1 experimental metastasis assay; format: in vivo, BALB/c mice; settings: IVIS imaging day 7; glycopolymer 100 μg/mouse i.p. 20 min before and together with the cells
Protocol: 4T1 Metastasis Assay. Luciferase-labeled 4T1 mammary carcinoma cells (1×10^5/mouse) were injected i.v. (n=6 mice/group) with vehicle alone (control, PBS), with positive control (heparin), or with GlcNS(6S)α((1,4)GlcA glycopolymer (DP=12, 100 μg/mouse) into BALB/c mice (i.p) 20 min prior to cell inoculation and also together with the cells. IVIS bioluminescent imaging was performed on day 7 after cell inoculation. For IVIS imaging, mice were injected intraperitoneally with D-luciferin substrate at 150 mg/kg and anesthetized with continuous exposure to isoflurane (EZAnesthesia, Palmer, Pa.). The experiment was repeated 3 times with similar results.
4T1 Metastasis Assay (Menhofer, et al., PLOS ONE 2014, 9, el 12542). Luciferase-labeled 4T1 breast carcinoma cells (1×10^5/mouse) were injected i.v (n=6 mice/group) with vehicle alone (control, PBS), with positive control (heparin), or with GlcNS(6S)α(1,4)GlcA glycopolymer (DP=12, 100 μg/mouse) into BALB/c mice (i.p) 20 min prior to cell inoculation and also together with the cells. IVIS bioluminescent imaging was performed on day 7 after cell inoculation. […] Light emitted from the bioluminescent cells is detected by the IVIS camera system with images quantified for tumor burden using a log-scale color range set at 5×10^4 to 1×10^7 and measurement of total photon counts per second (PPS) using Living Image software (Xenogen). […]

platelet factor-4 (PF4) = target: T1, platelet factor-4 (PF4) (Homo sapiens, UniProt P02776); experiment: Solution-based competitive BLI assay, PF4; format: binding; settings: competition with immobilized biotin-heparin (18 kDa), 25° C., read-out: dissociation constant (apparent Kd) to PF4
T1 construct: purchased R&D Systems
T1 sequence (P02776 32-101): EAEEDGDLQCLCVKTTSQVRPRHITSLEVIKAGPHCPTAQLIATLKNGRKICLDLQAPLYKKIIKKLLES
Protocol: (§1) Biolayer Interferometry Cross-Bioactivity Assay. BLI assays were performed on an Octet Red Instrument (fortéBIO) at 25° C. Immobilization and binding analysis were carried out at 1000 rpm using HBS-EP buffer.
(§2) Biolayer Interferometry (BLI) Assay. BLI assays were performed on an Octet Red Instrument (fortéBIO) at 25° C. Immobilization and binding analysis were carried out at 1000 rpm using HBS-EP buffer [10 mM HEPES, pH 7.4, 150 mM NaCl, 3.0 mM EDTA, and 0.005% (v/v) surfactant tween20]. A solution affinity assay, used to determine affinities of ligands by SPR analysis, was adopted to BLI (Cochran et al., Glycoconjugate J. 2009, 26, 577-587.). In this method, protein is mixed with various concentrations of ligand (glycopolymer C5A or heparin, 18 kDa). Free protein in this equilibrium mixture is tested for binding against immobilized heparin (all proteins are carrier-free and purchased from R&D Systems). Heparin-biotin (Creative PEGworks, 18 kDa, 1 biotin per HP polymer), 5 μg/mL was immobilized on to streptavidin biosensors (fortéBio) for 5 min. Binding experiments were carried out under conditions of mass transport. Binding was fitted to equation 1 (as taught in reference Chai, et al. Anal. Biochem. 2009, 395, 263-264.) using Graphpad Prism. BLI response was used in place of F and ligand (heparin/glycopolymer C5A) concentration was used in place of [metal]. […]

VEGF = target: T2, VEGF (Homo sapiens, UniProt P15692); experiment: Solution-based competitive BLI assay, VEGF; format: binding; settings: competition with immobilized biotin-heparin (18 kDa), 25° C., read-out: dissociation constant (apparent Kd) to VEGF
T2 construct: purchased R&D Systems
T2 sequence (P15692 27-191 isoform P15692-4): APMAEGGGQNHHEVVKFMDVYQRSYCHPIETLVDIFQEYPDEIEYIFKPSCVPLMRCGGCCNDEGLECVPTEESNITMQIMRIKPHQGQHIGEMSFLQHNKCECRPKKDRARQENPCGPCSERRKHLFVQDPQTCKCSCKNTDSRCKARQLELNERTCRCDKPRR
Protocol: as §1, §2

P-selectin = target: T3, P-selectin (Homo sapiens, UniProt P16109); experiment: Solution-based competitive BLI assay, P-selectin; format: binding; settings: HBS-EP buffer with 2 mM CaCl2, 2 mM MgCl2 and 0.5 mg/mL BSA
T3 construct: purchased R&D Systems
T3 sequence (P16109 42-830): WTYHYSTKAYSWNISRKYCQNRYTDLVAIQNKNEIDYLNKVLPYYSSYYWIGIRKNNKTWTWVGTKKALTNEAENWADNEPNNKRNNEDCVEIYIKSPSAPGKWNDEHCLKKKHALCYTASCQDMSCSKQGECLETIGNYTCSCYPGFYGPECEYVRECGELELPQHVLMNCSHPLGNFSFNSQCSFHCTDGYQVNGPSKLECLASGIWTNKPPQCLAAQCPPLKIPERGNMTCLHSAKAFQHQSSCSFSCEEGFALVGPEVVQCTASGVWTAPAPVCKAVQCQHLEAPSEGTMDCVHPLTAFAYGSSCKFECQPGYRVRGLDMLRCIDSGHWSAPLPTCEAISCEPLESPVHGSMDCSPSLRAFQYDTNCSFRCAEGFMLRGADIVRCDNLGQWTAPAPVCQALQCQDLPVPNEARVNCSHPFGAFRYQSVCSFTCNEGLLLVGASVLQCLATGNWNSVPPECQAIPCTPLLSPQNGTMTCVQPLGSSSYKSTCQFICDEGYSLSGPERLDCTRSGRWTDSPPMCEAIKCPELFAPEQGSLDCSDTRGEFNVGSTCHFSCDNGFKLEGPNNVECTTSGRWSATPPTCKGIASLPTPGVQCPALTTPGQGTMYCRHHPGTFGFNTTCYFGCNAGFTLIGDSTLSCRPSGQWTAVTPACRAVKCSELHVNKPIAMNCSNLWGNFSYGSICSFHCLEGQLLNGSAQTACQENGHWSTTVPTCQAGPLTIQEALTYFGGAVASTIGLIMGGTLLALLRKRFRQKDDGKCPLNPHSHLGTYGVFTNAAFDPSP
Protocol: as §1, §2

FGF-1 = target: T4, FGF-1 (Homo sapiens, UniProt P05230); experiment: Solution-based competitive BLI assay, FGF-1; format: binding; settings: competition with immobilized biotin-heparin (18 kDa), 25° C., read-out: dissociation constant (apparent Kd) to FGF-1
T4 construct: purchased R&D Systems
T4 sequence (P05230 whole entry, species assumed): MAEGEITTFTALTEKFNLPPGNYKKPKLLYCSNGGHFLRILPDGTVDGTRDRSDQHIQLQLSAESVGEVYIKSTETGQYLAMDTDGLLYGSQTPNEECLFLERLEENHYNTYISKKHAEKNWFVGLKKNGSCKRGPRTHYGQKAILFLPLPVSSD
Protocol: as §1, §2

FGF-2 = target: T5, FGF-2 (Homo sapiens, UniProt P09038); experiment: Solution-based competitive BLI assay, FGF-2; format: binding; settings: competition with immobilized biotin-heparin (18 kDa), 25° C., read-out: dissociation constant (apparent Kd) to FGF-2
T5 construct: purchased R&D Systems
T5 sequence (P09038 143-288, species assumed): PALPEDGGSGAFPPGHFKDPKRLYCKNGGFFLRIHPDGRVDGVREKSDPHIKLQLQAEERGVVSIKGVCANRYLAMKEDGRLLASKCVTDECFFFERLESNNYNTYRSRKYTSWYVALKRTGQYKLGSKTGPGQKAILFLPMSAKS
Protocol: as §1, §2

Kd (platelet factor-4 (PF4)) [nM] | Kd (VEGF) [nM] | Kd (P-selectin) [nM] | Kd (FGF-1) [nM] | Kd (FGF-2) [nM] | Substance | antimetastatic effect, lung metastasis of 4T1 cells [1]
 |  |  |  |  | Roneparstat | effect was similar
0.31 ± 0.028 | 4.91 ± 1.55 | 125 ± 152 | 4.6 ± 3.3 | 0.15 ± 0.11 | heparin [reference compound] | reduced the size of the metastasized lung tumor by half

— patent US20210330693A1, “HEPARANASE INHIBITORS AND THEIR USE AS ANTI-CANCER COMPOUNDS” (Wayne State University, priority 2018, published 2021)
